Key:
[1] = cold / warm water; cited from earlier work
Ehrlich solid tumor = assay: Comparative test for inhibition of Ehrlich solid tumor proliferation; type: in vivo, mouse; conditions: An 15, Gh 15, AG60 30 mg/kg; for size of cancer tissue (solid tumor proliferation): i.m. once a day
Description: Comparative test for inhibition of Ehrlich solid tumor proliferation with acriflavine neutral(An), guanosine hydrate(Gh) and the composition(AG60) of the present invention
Normal 20 ICR mice(.male., 20±1 g) were divided into 4 groups such that each group included 5 mice. Ehrlich cancer cells were transplanted into the inguinal area of all experimental animals in an amount of 1×10^7 cells per animal. After 24 hours, the control group A received physiological saline in an amount of 10 ml/kg by intramuscular injection, once a day, for 15 days. As the comparative groups, the groups B and C received acriflavine neutral(An) in an amount of 15 mg/kg and guanosine hydrate(Gh) in an amount of 15 mg/kg, respectively, in the same manner as the control group. To the group D the composition (AG60) of the present invention was administered in an amount of 30 mg/kg in the same manner as the control group. During 15 days after the transplantation of cancer cells the proliferation of solid tumor in each group was observed.
The effects on the solid tumor proliferation of the composition(AG60) of the present invention, acriflavine neutral(An) and guanosine hydrate(Gh) were determined by measuring the size of cancer tissues in control group A, the acriflavine neutral group B, the guanosine hydrate group C and the present composition(AG60) group D from the fifth day to the fifteenth day after the transplantation of cancer cells at an interval of 2 days, and are presented in Table 3 and FIG. 5. […] In group D to which the composition(AG60) of the present invention was administered, the size of cancer tissue was measured as 1.5 mm after 5 days from transplantation and, thereafter, increased 0.35 mm every 2 days.

[2] = test system: human hepatoma cells SK-HEP-1; assay: MTT in vitro test, cell survival rate of human hepatoma cell line SK-HEP-1; type: cell-based
Description: (§1) In vitro test for the effect of the composition (AG60) of the present invention on mouse lung cancer cells 3LL and human hepatoma cells SK-HEP-1
(§2) Cancer cells used for this test include human hepatoma cell line SK-HEP-1 and mouse lung cancer cell line 3LL, as recommended by the U.S. NCI(National Cancer Institute).
(§3) These cell lines were incubated in the culture media prepared by adding 10% inactivated FBS(fetal bovine serum), 100 μg/ml of streptomycin and 100 units/ml of penicillin to RPMI 1640 medium, at 37° C. in an incubator(Heraus) under 5% CO2 and 100% humidity. […] After 2 days, the survival rate of cells was calculated by carrying out MTT method using determination of dehydrogenase enzyme in cellular mitochondria and measuring the absorbance at 540 nm by means of a spectrophotometer (ELISA reader), to determine the anti-cancer activity of the composition according to the present invention against respective cancer cells. MTT test is a method in which formazan precipitate formed by reduction of MTT with cellular mitochondria dehydrogenase in living cells is dissolved and then the absorbance is measured. Thus, since in vigorously dividing cancer cells the enzyme is fully active, by the action of enzyme MTT is reduced to form the precipitate which can be dissolved to determine the absorbance, thereby identifying the survival rate of respective cells. […]

[3] = test system: mouse lung cancer cells 3LL; assay: MTT in vitro test, cell survival rate of mouse lung cancer cell line 3LL; type: cell-based
Description: as §1, §2, §3

SMILES	solubility in water [1]	size of cancer tissue (solid tumor proliferation) (Ehrlich solid tumor; day 5)	size of cancer tissue (solid tumor proliferation) (Ehrlich solid tumor; day 7)	size of cancer tissue (solid tumor proliferation) (Ehrlich solid tumor; day 9)	size of cancer tissue (solid tumor proliferation) (Ehrlich solid tumor; day 11)	size of cancer tissue (solid tumor proliferation) (Ehrlich solid tumor; day 13)	size of cancer tissue (solid tumor proliferation) (Ehrlich solid tumor; day 15)	inhibition of solid tumor proliferation in words (Ehrlich solid tumor; i.m. once a day for 15 days)	IC50 ([2]; Homo sapiens, SK-HEP1, 48 h, read-out: ID value (survival rate of cells))	cytotoxicity / anti-cancer activity in words ([2]; SK-HEP-1 cells)	cytotoxicity / anti-cancer activity in words ([3]; 3LL cells)	IC50 ([3]; Mus musculus, 3LL, 48 h, read-out: ID value (survival rate of cells))
Nc1nc2c(ncn2[C@@H]2O[C@H](CO)[C@@H](O)[C@H]2O)c(=O)[nH]1 [Guanosine, 2-amino-9-β-D-ribofuranosyl-9H-purin-6-(1H)-one]	slighly soluble in cold water but soluble in warm water	–	–	–	–	–	–	–	–	–	–	–
Nc1nc2c(ncn2[C@@H]2O[C@H](CO)[C@@H](O)[C@H]2O)c(=O)[nH]1.O [Guanosine hydrate]	–	4.7 mm	6.8 mm	8.5 mm	12.3 mm	14.5 mm	18.2 mm	showed the similar proliferation pattern to each other	1530 µg/mL	did not show any anti-cancer activity	did not show any anti-cancer activity	1520 µg/mL

Source: US5891864A, “Anti-cancer compositions” (Han; Yung Bok, priority 1995, dated 1999)
